From patent publication US8084210B2, “Methods for the assessment of drug response” (Theranostics Laboratory, priority 2008, dated 2011)
Values joined by “and” are separate entries in the source; they are usually repeats but may differ in a detail not shown here. Equal values may be shown once. Read-outs that look alike come from different tables or passages of the source.

Legend:
[1] = in vivo; cited from earlier work
[2] = target: T1, P2Y12 receptor (Homo sapiens, UniProt Q9H244); experiment: Platelet function by VerifyNow P2Y12 analyser in elective PCI patients given clopidogrel (PRINC trial); assay type: in vivo; settings: for inhibition at 75 mg / inhibition at 150 mg: human
T1 construct: light transmittance through whole blood, to measure platelet agglutination; from tissue; host or cells: Platelets in citrated whole blood (arterial or venous) of patients
T1 sequence (Q9H244 whole entry): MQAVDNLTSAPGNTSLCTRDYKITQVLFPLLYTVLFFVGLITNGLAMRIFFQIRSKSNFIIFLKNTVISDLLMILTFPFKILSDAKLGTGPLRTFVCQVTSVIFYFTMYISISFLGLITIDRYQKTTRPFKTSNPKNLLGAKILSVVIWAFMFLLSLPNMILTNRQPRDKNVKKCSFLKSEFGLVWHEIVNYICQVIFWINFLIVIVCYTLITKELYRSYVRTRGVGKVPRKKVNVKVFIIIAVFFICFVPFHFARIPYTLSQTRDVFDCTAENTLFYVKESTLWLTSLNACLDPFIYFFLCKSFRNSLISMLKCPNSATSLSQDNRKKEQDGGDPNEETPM
Source text: The study protocol was approved by the Northern Regional Ethics Committee of New Zealand. Eligible patients were defined as all-corners for elective percutaneous coronary intervention who were on aspirin and naëve to clopidogrel. […] Patients were randomised into equal groups using a computerised random number generator. Block randomisation was not used, explaining the unbalanced grouping to treatment allocations. Clopidogrel was broken in half and repackaged into gelatine capsules packed with lactose powder to match placebo. Investigators and subjects were blinded to treatment allocation. A target of 120 patients was predefined for completion of the study. […] At discharge patients were randomized to receive either 75 mg or 150 mg once daily for one week and regular 75 mg once daily dosing thereafter. Adherence to the treatment regimen was tested by a phone interview and pill count. Arterial blood was sampled through 6Fr femoral sheaths and transferred immediately to 3.2% citrate 2 ml vacutainer tubes (Cat. #454321 Greiner Vacuette®, Greiner, Kremsmuenster, Austria), using a 20 G needle and syringe. After sheath removal blood was drawn by venepucture directly into vacutainer tubes. After collection the tubes were inverted four times for adequate mixing of the anticoagulant and left for ten minutes at 24 degrees before testing. Platelet function was tested at baseline, two, four and seven hours from first clopidogrel loading and at seven days. […] This device uses fibrinogen coated microbeads, an agonist of adenosine diphosphate (ADP) and light transmittance through whole blood, to measure platelet agglutination. The output of the device is measured as the proprietary platelet response unit (PRU). […] Percent inhibition is reported as the percentage change from baseline using a BASE unit. This BASE unit is derived from a second channel run parallel with the ADP channel using the agonist iso-TRAP (Thrombin Receptor Activating Peptide). From this point “percentage inhibition” will reflect this formula: % Inhibition=[(BASE−PRU)×100]/BASE. […] (2004) and Lev E I et al (2006)). The principal time point of interest for comparisons of genotype to drug response was specified as two hours after the first loading dose as at this point all patients had received only 600 mg. […] The effect of different dosages on response in genotype groups was assessed at four hours.

[3] = cited from earlier work
[4] = test system: ADP-induced platelet aggregation or activation; settings: low inhibition of ADP-induced platelet aggregation or activation; cited from earlier work

CC(=O)Oc1cc2c(s1)CCN(C(C(=O)C1CC1)c1ccccc1F)C2 (stereo not shown) [prasugrel, 5-[2-cyclopropyl-1-(2-fluorophenyl)-2-oxoethyl]-4,5,6,7-tetrahydrothieno[3,2-c]pyridin-2-yl acetate]
Elimination half life [1]: 3.7 h

COC(=O)[C@H](c1ccccc1Cl)N1CCc2sccc2C1 [clopidogrel, (+)-(S)-methyl 2-(2-chlorophenyl)-2-(6,7-dihydrothieno[3,2-c]pyridin-5(4H)-yl)acetate]
Platelet inhibition ([2]; 75 mg maintenance dose, CYP2C19*2 or *4 carriers): 24+/−18% | Non-responders (seven hour percent inhibition <10%) ([2]; 600 mg (low dose) group, six out of 26): 26% | Platelet inhibition ([2]; 600 mg loading dose, CYP2C19*2 or *4 carriers): 16+/−13% | Non-responders (seven hour percent inhibition <10%) ([2]; 1,200 mg (high dose) group, two out of 37): 5% | Platelet inhibition ([2]; 2 hours after 600 mg, CYP2C19*1*1 carriers): 26+/−20% | Platelet inhibition ([2]; 2 hours after 600 mg, CYP2C19*2, *4 and *17 carriers): 13+/−20% | Platelet inhibition ([2]; four hours, 600 mg loading dose): 23.7% | Platelet inhibition ([2]; four hours, 600 mg loading dose, CYP2C19*1*1 carriers): 35+/−27% | Platelet inhibition ([2]; four hours, 1200 mg loading dose, CYP2C19*1*1 carriers): 51+/−28% | Platelet inhibition ([2]; four hours, 1,200 mg split loading dose): 42% | Platelet inhibition ([2]; higher (150 mg) maintenance dose, CYP2C19*2 or *4 carriers): 49+/−31% | Platelet inhibition ([2]; higher (1200 mg) loading dose, CYP2C19*2 or *4 carriers): 36+/−24% | inhibition at 75 mg ([2]; 75 mg daily maintenance dose, CYP2C19*1*1 carriers): 40% | inhibition at 150 mg ([2]; 150 mg daily maintenance dose, CYP2C19*1*1 carriers): 51% | inhibition at 75 mg ([2]; one week, 75 mg once daily): 28.8% | inhibition at 150 mg ([2]; one week, 150 mg once daily): 49.8% | Platelet inhibition ([2]; seven days, 600 mg loading dose group): 35.7% | Platelet inhibition ([2]; seven days, 1,200 mg split loading dose group): 44.5% | Platelet inhibition ([2]; seven hours, 600 mg loading dose): 28.7% | Platelet inhibition ([2]; seven hours, 1,200 mg split loading dose): 48.9% | Platelet inhibition ([2]; seven hours, two individuals carrying both 2C19 and 2C9 poor responder genotypes): 8% and 11% | Platelet inhibition ([2]; two hours after 600 mg, two P2Y12 H2 haplotype CC homozygotes): < 2% | Bioavailability ([3]; in vivo): approximately 50% | Elimination half life ([3]; in vivo): 7.2 to 7.6 h | Time to peak effect after dosing ([3]; in vivo): six | Share of a dose converted by esterases to inactive metabolites ([3]; inactivation pathway): ~85% | Patients classified as poor responders or resistant [4]: 20-40%
